Test results reported in ChEMBL document CHEMBL1201862, “PubChem BioAssay data set” (2004).
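Five concentrations, 48 hours, 96-well plates. GI50: concentration for 50% inhibition of growth.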 Calls of active or inactive are those of the source. Rule as the data show it: active = GI50 up to about 1.1 µM and inactive = higher. Square brackets hold non-standard residues; d marks the D form. Peptide text beside a SMILES is read from it. * marks the point of attachment. NMeV = CN[C@H](C(=O)O)C(C)C; X28 = COc1ccc(CN*)c(OC)c1; Octanoyl = CCCCCCCC(=O)*; dNMeA = CN[C@H](C)C(=O)O

How the values were obtained:
Experiment in all cases: growth of human tumour cells (NCI), 48 h
SR = system: SR
SK-MEL-5 = system: SK-MEL-5
A498 = system: A498
MDA-MB-435 = system: MDA-MB-435
OVCAR-8 = system: OVCAR-8
ACHN = system: ACHN
COLO 205 = system: COLO 205
OVCAR-5 = system: OVCAR-5
TK-10 = system: TK-10
HOP-92 = system: HOP-92
SF-268 = system: SF-268
HCT-116 = system: HCT-116
EKVX = system: EKVX
HCT-15 = system: HCT-15
DU-145 = system: DU-145
LOX IMVI = system: LOX IMVI
A549 = system: A549
HCC 2998 = system: HCC 2998
NCI-H226 = system: NCI-H226
SF-295 = system: SF-295

Row | Structure (SMILES) | GI50 (SR) | GI50 (SK-MEL-5) | GI50 (A498) | GI50 (MDA-MB-435) | GI50 (OVCAR-8) | GI50 (ACHN) | GI50 (COLO 205) | GI50 (OVCAR-5) | GI50 (TK-10) | GI50 (HOP-92) | GI50 (SF-268) | GI50 (HCT-116) | GI50 (EKVX) | GI50 (HCT-15) [µM] | GI50 (DU-145) | GI50 (LOX IMVI) | GI50 (A549) | GI50 (HCC 2998) | GI50 (NCI-H226) | GI50 (SF-295)
1 | Nc1ncnc2c1ccn2C1OC2COP(=O)(O)OC2C1O (stereo not given) | 0.173 µM (active) | 0.327 µM (active) | 1.15 µM (inactive) | 0.273 µM (active) | 0.0773 µM (active) | 0.0412 µM (active) | 0.181 µM (active) | 0.849 µM (active) | 0.25 µM (active) | 0.462 µM (active) | 0.46 µM (active) | 0.17 µM (active) | 2.64 µM (inactive) | 0.152 | 0.723 µM (active) | 0.0735 µM (active) | 0.365 µM (active) | 0.942 µM (active) | 2.9 µM (inactive) | 0.641 µM (active)
2 | COC1CC(COCc2ccccc2)CC(OC)O1 (stereo not given) | > 100 µM (inactive) | > 100 µM (inactive) | > 100 µM (inactive) | > 100 µM (inactive) | > 100 µM (inactive) | > 100 µM (inactive) | > 100 µM (inactive) | > 100 µM (inactive) | > 100 µM (inactive) | > 100 µM (inactive) | > 100 µM (inactive) | > 100 µM (inactive) | > 100 µM (inactive) | > 100 | > 100 µM (inactive) | 64 µM (inactive) | > 100 µM (inactive) | > 100 µM (inactive) | > 100 µM (inactive) | > 100 µM (inactive)
3 | O=C1CSC(c2ccc(Cl)cc2)N1c1ccc(-n2c(-c3ccccc3)nc3ccccc3c2=O)cc1 (stereo not given) | 77.4 µM (inactive) | 54.7 µM (inactive) | 83.4 µM (inactive) | 56 µM (inactive) | > 100 µM (inactive) | > 100 µM (inactive) | > 100 µM (inactive) | > 100 µM (inactive) | > 100 µM (inactive) | 10.3 µM (inactive) | 88.1 µM (inactive) | 34.3 µM (inactive) | > 100 µM (inactive) | 20.4 | > 10 µM (inactive) | 50.8 µM (inactive) | 60.8 µM (inactive) | 34.5 µM (inactive) | > 100 µM (inactive) | 46.1 µM (inactive)
4 | CC[C@@]1(O)C(=O)OCc2c1cc1n(c2=O)Cc2c-1nc1ccccc1c2/C=N\NC(=O)CN | < 0.0125 µM (active) | 0.252 µM (active) | 0.488 µM (active) | 1.61 µM (inactive) | 0.273 µM (active) | < 0.0197 µM (active) | 15.6 µM (inactive) | 3.24 µM (inactive) | 26.1 µM (inactive) | 1.15 µM (inactive) | 0.0387 µM (active) | 0.419 µM (active) | 12 µM (inactive) | 0.221 | 0.0989 µM (active) | 0.0989 µM (active) | 0.687 µM (active) | 2.21 µM (inactive) | 0.188 µM (active) | 0.143 µM (active)
5 | O=C1CN(C(=O)C2CCCN2C(=O)C2CCCN2)C(=O)CN1 (stereo not given) | > 100 µM (inactive) | > 100 µM (inactive) | 55.2 µM (inactive) | 36.8 µM (inactive) | > 100 µM (inactive) | > 100 µM (inactive) | > 100 µM (inactive) | > 100 µM (inactive) | > 100 µM (inactive) | > 100 µM (inactive) | > 100 µM (inactive) | > 100 µM (inactive) | > 100 µM (inactive) | > 100 | > 100 µM (inactive) | > 100 µM (inactive) | > 100 µM (inactive) | > 100 µM (inactive) | > 100 µM (inactive) | > 100 µM (inactive)
6 | COc1cc2c(cc1OC)C1C=NC(C2)c2cc(OC)c(OC)cc21 (stereo not given) | 69.3 µM (inactive) | 40.5 µM (inactive) | > 100 µM (inactive) | > 100 µM (inactive) | 96.2 µM (inactive) | > 100 µM (inactive) | 89.7 µM (inactive) | > 100 µM (inactive) | > 100 µM (inactive) | 4.49 µM (inactive) | > 100 µM (inactive) | > 100 µM (inactive) | 85.9 µM (inactive) | 85.9 | > 100 µM (inactive) | > 100 µM (inactive) | 78.7 µM (inactive) | > 100 µM (inactive) | 6.97 µM (inactive) | > 100 µM (inactive)
7 | Cc1nc2c(Cl)cc(Cl)cc2c2c1CCO2 | > 100 µM (inactive) | > 100 µM (inactive) | 67.1 µM (inactive) | > 100 µM (inactive) | > 100 µM (inactive) | > 100 µM (inactive) | > 100 µM (inactive) | > 100 µM (inactive) | > 100 µM (inactive) | 73.1 µM (inactive) | > 100 µM (inactive) | > 100 µM (inactive) | 54 µM (inactive) | > 100 | > 100 µM (inactive) | > 100 µM (inactive) | > 100 µM (inactive) | > 100 µM (inactive) | > 100 µM (inactive) | > 100 µM (inactive)
8 | Cc1ccc([N+](=O)[O-])c2c(NCCNC(=O)Cn3ccnc3[N+](=O)[O-])ccnc12 | > 100 µM (inactive) | 17.8 µM (inactive) | 31.6 µM (inactive) | 94.6 µM (inactive) | 31.3 µM (inactive) | 44.2 µM (inactive) | 41 µM (inactive) | 35.5 µM (inactive) | 88.3 µM (inactive) | 26.5 µM (inactive) | 36.5 µM (inactive) | 43.7 µM (inactive) | > 100 µM (inactive) | > 100 | 57.3 µM (inactive) | 45.8 µM (inactive) | 48.5 µM (inactive) | 39.6 µM (inactive) | 26.2 µM (inactive) | 20.5 µM (inactive)
9 | O=c1c2ncn(C3CC(O)C(CO)O3)c2nnn1Cc1ccccc1[N+](=O)[O-] (stereo not given) | 3.13 µM (inactive) | > 100 µM (inactive) | > 100 µM (inactive) | > 100 µM (inactive) | > 100 µM (inactive) | > 100 µM (inactive) | > 100 µM (inactive) | > 100 µM (inactive) | > 100 µM (inactive) | 57.8 µM (inactive) | > 100 µM (inactive) | > 100 µM (inactive) | > 100 µM (inactive) | > 100 | > 100 µM (inactive) | > 100 µM (inactive) | > 100 µM (inactive) | > 100 µM (inactive) | 43.6 µM (inactive) | > 100 µM (inactive)
10 | C=C(CN(C)C)C(=O)c1ccc(C)cc1C | 1.25 µM (inactive) | 14.1 µM (inactive) | 17.2 µM (inactive) | 5.94 µM (inactive) | 12.9 µM (inactive) | 7.73 µM (inactive) | 3.38 µM (inactive) | 14.1 µM (inactive) | 8.73 µM (inactive) | 3.74 µM (inactive) | 15.3 µM (inactive) | 5.61 µM (inactive) | 12.9 µM (inactive) | 4.52 | 17.6 µM (inactive) | 5.12 µM (inactive) | 32.2 µM (inactive) | 17.1 µM (inactive) | 15.5 µM (inactive) | 16.3 µM (inactive)
11 | O=C1OC(c2ccccc2)=N/C1=C\c1ccc(Br)cc1 | 66.2 µM (inactive) | > 100 µM (inactive) | > 100 µM (inactive) | > 100 µM (inactive) | > 100 µM (inactive) | > 100 µM (inactive) | > 100 µM (inactive) | > 100 µM (inactive) | > 100 µM (inactive) | > 100 µM (inactive) | > 100 µM (inactive) | > 100 µM (inactive) | > 100 µM (inactive) | > 100 | > 100 µM (inactive) | > 100 µM (inactive) | > 100 µM (inactive) | > 100 µM (inactive) | > 100 µM (inactive) | > 100 µM (inactive)
12 | CC(C)C(C/C=C1\CC(CO)(COC(=O)C2CCCCC2)OC1=O)C(C)C (stereo not given) | 27 µM (inactive) | 31.6 µM (inactive) | 44.8 µM (inactive) | 44.8 µM (inactive) | 18.7 µM (inactive) | 16 µM (inactive) | 10.3 µM (inactive) | 20 µM (inactive) | 21 µM (inactive) | 16.9 µM (inactive) | 17.7 µM (inactive) | 19.2 µM (inactive) | 19 µM (inactive) | 21.7 | 12.3 µM (inactive) | 15.7 µM (inactive) | 16.8 µM (inactive) | 27.9 µM (inactive) | 18.2 µM (inactive) | 16.3 µM (inactive)
13 | CCCCCCCC(=O)N[C@H](C(=O)N[C@H](C(=O)N(C)[C@H](C(=O)N1CCC[C@H]1C(=O)N(C)[C@H](C)C(=O)NCc1ccc(OC)cc1OC)C(C)C)C(C)C)C(C)C (Octanoyl-VV[NMeV]P[dNMeA]-X28) | 17.6 µM (inactive) | 3.3 µM (inactive) | 1.95 µM (inactive) | 5.22 µM (inactive) | 5.58 µM (inactive) | 5.26 µM (inactive) | 5.74 µM (inactive) | 25.5 µM (inactive) | 22.3 µM (inactive) | 7.6 µM (inactive) | 15.2 µM (inactive) | 5.93 µM (inactive) | 6.89 µM (inactive) | 21.5 | 25.3 µM (inactive) | 12.2 µM (inactive) | 6.55 µM (inactive) | 13.4 µM (inactive) | 4.95 µM (inactive) | 7.96 µM (inactive)
14 | C=C1C(=O)O[C@H]2[C@H]1[C@H](OC(=O)/C(C)=C\C)C[C@]1(CO1)[C@@H]1[C@H](OC(C)=O)C=C(C)[C@]21O [EUPAROTIN ACETATE] | 3.64 µM (inactive) | 17 µM (inactive) | 1.24 µM (inactive) | 17.9 µM (inactive) | 30.8 µM (inactive) | 10.6 µM (inactive) | 5.24 µM (inactive) | 25.4 µM (inactive) | 7.73 µM (inactive) | 15 µM (inactive) | 19.2 µM (inactive) | 6.58 µM (inactive) | 17 µM (inactive) | 13.3 | 15.4 µM (inactive) | 12.7 µM (inactive) | 69.2 µM (inactive) | 19.3 µM (inactive) | > 43 µM (inactive) | > 83.9 µM (inactive)
